Results from US20160324875A1, “CUTANEOUS COMPOSITION COMPRISING VITAMIN D ANALOGUE AND A MIXTURE OF SOLVENT AND SURFACTANTS” (LEO PHARMA A/S, priority 2009, published 2016).
“Also recorded” adds a separate entry of the source.

Key:
[1] = skin diffusion experiment (Franz diffusion cells); type: in vitro ADME, pig; conditions: from a composition of the invention, 4 mg/cm^2, 21 hours, FIG. 3, % of applied dose
Protocol: To investigate the skin penetration and permeation of calcipotriol from compositions of the invention, a skin diffusion experiment was conducted. Full thickness skin from pig ears was used in the study. The ears were kept frozen at -18° C. before use. On the day prior to the experiment the ears were placed in a refrigerator (5±3° C.) for slow defrosting. On the day of the experiment, the hairs were removed using a veterinary hair trimmer. The skin was cleaned for subcutaneous fat using a scalpel and two pieces of skin were cut from each ear and mounted on Franz diffusion cells in a balanced order.
Static Franz-type diffusion cells with an available diffusion area of 3.14 cm^2 and receptor volumes ranging from 8.6 to 11.1 ml were used in substantially the manner described by T. J. Franz, “The finite dose technique as a valid in vitro model for the study of percutaneous absorption in man”, in Current Problems in Dermatology, 1978, J. W. H. Mall (Ed.), Karger, Basel, pp. 58-68. The specific volume was measured and registered for each cell. A magnetic bar was placed in the receptor compartment of each cell. […]
The in vitro skin permeation of each test composition was tested in 6 replicates (i.e. n=6). […] A glass spatula was used for the application, and the residual amount of the composition was determined so as to give the amount of the composition actually applied on the skin. […]

IL-la = test: release of IL-1a from calcipotriol ointment containing glycerol; conditions: 5%, 10%, 15% by weight of glycerol in a calcipotriol ointment
[2] = system: gene encoding cathelicidin; test: induction of the gene encoding cathelicidin in reconstructed human epidermis (qPCR); type: cell-based; conditions: glycerol 5% vs 10% or 15% by weight in calcipotriol composition
Text: In psoriasis, the level of cathelicidin is increased in lesional skin of psoriasis patients. […] This finding has been utilized to develop an assay in which the uptake and biological activity of calcipotriol in human keratinocytes from the tested compositions has been determined by measuring the level of induction of the gene encoding cathelicidin.
In the assay, composition 1A prepared as described in Example 1 above was applied topically in triplicate on reconstructed human epidermis consisting of normal human keratinocytes cultured for 12 days on 0.5 cm^2 polycarbonate filters (available from SkinEthic® Laboratories, Nice, France) in an amount of […]. The tissue was treated for two days followed by separation of the epidermis from the polycarbonate filter and snap-frozen in liquid nitrogen. RNA was extracted from the cells and cDNA synthesized by conventional procedures. Quantitative real-time PCR (qPCR) was then performed using the following assays from Applied Biosystems: CAMP Hs0018038_ml and GAPDH Hs99999905_ml. The expression levels of cathelicidin were normalized to GAPDH and a relative quantification was made by comparison with Daivonex® ointment.

[3] = one study, Hannuksela et al. 1975; cited from earlier work

C=C1/C(=C\C=C2/CCC[C@]3(C)[C@@H]([C@H](C)/C=C/[C@@H](O)C4CC4)CC[C@@H]23)C[C@@H](O)C[C@@H]1O [calcipotriol, Calcipotriol]
calcipotriol penetrated into viable layers of the skin (dermis and epidermis) [1]: a significant amount | calcipotriol permeated through the skin into the receptor fluid [1]: Very little; also recorded: only a minor amount

OCC(O)CO [glycerol]
release of IL-la (IL-la): reduce the release of IL-la in a dose-dependent manner | expression of cathelicidin [2]: increased with a low amount of glycerol

CC(O)CO (centres unmarked) [propylene glycol]
number of irritant reactions [3]: 12.5%
